Results as given in patent publication US20240400555A1 (Initial Therapeutics, Inc., priority 2023, published 2024).
pIC50: −log10 of the molar value. Read-outs that look alike come from different tables or passages of the source.

System: MV-4-11 cells
Test: Cell Viability Assay in MV-4-11 Cells
Type: cell-based
Conditions: Homo sapiens, MV4-11, 72 h
Protocol: MV-4-11 cells (ATCC) were seeded into sterile 96-well flat clear bottom white polystyrene TC-treated microplates (Corning) at 7,000 cells/well in 150 μL complete growth medium (Iscove's Modified Dulbecco's Medium (IMDM) (Gibco), 10% Heat Inactivated Fetal Bovine Serum (HyClone), 1% Penicillin-Streptomycin-L-Glutamine (HyClone), 1% GlutaMAX (Gibco)). […] After 72 h incubation, plates were removed from incubators and allowed to equilibrate to room temperature (˜10 min) before adding 50 μL per well Cell-Titer Glo reagent (Promega) using a WellJet (Integra Biosciences) dispenser. Plates were then incubated at room temperature for 2-20 min prior to measurement of luminescence on an Envision (Perkin Elmer) plate reader. Data were normalized to DMSO (100% viability) and analyzed using a non-linear four-parameter curve fit.

[1] = MV-4-11 cells, 72 h, Cell-Titer Glo, read-out: IC50

pIC50 [1]	Compound	pIC50
< 5.00	Cc1cccc2ccnc(N(C(=O)c3ccc(Nc4nccc(C(=O)O)n4)cc3F)[C@@H]3CCCNC3)c12 [Example 401, (R)-2-((3-fluoro-4-((8-methylisoquinolin-1-yl)(piperidin-3-yl)carbamoyl)phenyl)amino)pyrimidine-4-carboxylic acid]	–
7.85	Cc1cccc2ccnc(N(C(=O)c3ccc(Nc4nccc(N5CCC(=O)CC5)n4)cc3F)[C@@H]3CCCNC3)c12 [Example 719, (R)-2-fluoro-N-(8-methylisoquinolin-1-yl)-4-((4-(4-oxopiperidin-1-yl)pyrimidin-2-yl)amino)-N-(piperidin-3-yl)benzamide]	–
6.28	Cn1cc(-c2ccc(C(=O)N(c3nccc4c(F)cccc34)[C@@H]3CCCNC3)c(F)c2)nn1 [Example 759, (R)-2-fluoro-N-(5-fluoroisoquinolin-1-yl)-4-(1-methyl-1H-1,2,3-triazol-4-yl)-N-(piperidin-3-yl)benzamide]	–
–	[2H]C([2H])([2H])c1nnc(-c2ccc(C(=O)N(c3nccc4scc(C)c34)[C@@H]3CCCNC3)c(F)c2)s1 [Example 780, 2-fluoro-N-(3-methylthieno[3,2-c]pyridin-4-yl)-N-[(3R)-3-piperidyl]-4-[5-(trideuteriomethyl)-1,3,4-thiadiazol-2-yl] benzamide]	6.92
5.36	NC(=O)c1ccc(-c2cc3c(N(C(=O)c4ccc(-n5cnc6ccccc65)cc4F)[C@@H]4CCCNC4)nccc3s2)cc1 [Example 826, 4-(benzimidazol-1-yl)-N-[2-(4-carbamoylphenyl)thieno[3,2-c]pyridin-4-yl]-2-fluoro-N-[(3R)-3-piperidyl]benzamide]	–
7.25	Cc1cc(C)c2c(N(C(=O)c3ccc(-c4nnc(C)s4)cc3F)[C@@H]3CCCNC3)nccc2c1 [Example 641, (R)—N-(6,8-dimethylisoquinolin-1-yl)-2-fluoro-4-(5-methyl-1,3,4-thiadiazol-2-yl)-N-(piperidin-3-yl)benzamide]	–
6.07	Cc1cccc2ccnc(N(C(=O)N3CCC[C@@H](n4nc(-c5ccc(Oc6ccccc6)cc5)c5c(N)ncnc54)C3)[C@@H]3CCCNC3)c12 [Example 340, (R)-3-(4-amino-3-(4-phenoxyphenyl)-1H-pyrazolo[3,4-d]pyrimidin-1-yl)-N-(8-methylisoquinolin-1-yl)-N—((R)-piperidin-3-yl)piperidine-1-carboxamide]	–
6.32	O=C(c1ccc(-c2cnn3cccnc23)cc1)N(c1nccc2ccccc12)[C@@H]1CCCNC1 [Example 302, (R)—N-(isoquinolin-1-yl)-N-(piperidin-3-yl)-4-(pyrazolo[1,5-a]pyrimidin-3-yl)benzamide]	–
7.25	COCCc1nnc(-c2ccc(C(=O)N(c3nccc4cc(F)cc(C)c34)[C@@H]3CCCNC3)c(F)c2)s1 [Example 852, 2-fluoro-N-(6-fluoro-8-methyl-1-isoquinolyl)-4-[5-(2-methoxyethyl)-1,3,4-thiadiazol-2-yl]-N-[(3R)-3-piperidyl]benzamide]	–
7.62	Cc1cccc2ccnc(N(C(=O)c3ccc(Nc4nccc(N5CCC(C)(O)CC5)n4)cc3F)[C@@H]3CCCNC3)c12 [Example 936, (R)-2-fluoro-4-(4-(4-hydroxy-4-methylpiperidin-1-yl)pyrimidin-2-ylamino)-N-(8-methylisoquinolin-1-yl)-N-(piperidin-3-yl)benzamide]	–
6.40	Cn1cc(-c2ccc(C(=O)N(c3nccc4cc(Cc5ccccc5)ccc34)[C@@H]3CCCNC3)c(F)c2)nn1 [Example 609, (R)—N-(6-benzylisoquinolin-1-yl)-2-fluoro-4-(1-methyl-1H-1,2,3-triazol-4-yl)-N-(piperidin-3-yl)benzamide]	–
7.30	Cc1cccc2ccnc(N(C(=O)c3ccc(Nc4nccc(N5CCOCC5=O)n4)cc3F)[C@@H]3CCCNC3)c12 [Example 937, (R)-2-fluoro-N-(8-methylisoquinolin-1-yl)-4-(4-(3-oxomorpholino)pyrimidin-2-ylamino)-N-(piperidin-3-yl)benzamide]	–
6.92	CNC(=O)c1ccc(-c2cc3c(N(C(=O)c4ccc(-n5nnc6cccnc65)cc4F)[C@@H]4CCCNC4)nccc3s2)cc1 [Example 380, 2-fluoro-N-[2-[4-(methylcarbamoyl)phenyl]thieno[3,2-c]pyridin-4-yl]-N-[(3R)-3-piperidyl]-4-(triazolo[4,5-b]pyridin-3-yl)benzamide]	–
5.44	Cc1nnc(-c2ccc(C(=O)N(c3nccc4sc(C#CCCC(N)=O)cc34)[C@@H]3CCCNC3)c(F)c2)s1 [Example 817, N-[2-(5-amino-5-oxo-pent-1-ynyl)thieno[3,2-c]pyridin-4-yl]-2-fluoro-4-(5-methyl-1,3,4-thiadiazol-2-yl)-N-[(3R)-3-piperidyl]benzamide]	–
6.59	Cc1cccc2ccnc(N(C(=O)c3ccc(Nc4nccc(N)n4)cc3F)[C@@H]3CCCNC3)c12 [Example 848, (R)-4-((4-aminopyrimidin-2-yl)amino)-2-fluoro-N-(8-methylisoquinolin-1-yl)-N-(piperidin-3-yl)benzamide]	–
6.89	[2H]C([2H])([2H])c1nnc(-c2ccc(C(=O)N(c3nccc4scc(C)c34)[C@@H]3CCCNC3)cc2)s1 [Example 894, N-(3-methylthieno[3,2-c]pyridin-4-yl)-N-[(3R)-3-piperidyl]-4-[5-(trideuteriomethyl)-1,3,4-thiadiazol-2-yl]benzamide]	–
6.19	Cn1cc(-c2ccc(C(=O)N(c3nccc4sc(Cc5cccnc5)cc34)[C@@H]3CCCNC3)c(F)c2)nn1 [Example 488, 2-fluoro-4-(1-methyltriazol-4-yl)-N-[(3R)-3-piperidyl]-N-[2-(3-pyridylmethyl)thieno[3,2-c]pyridin-4-yl]benzamide]	–
7.00	CCc1cc(-n2nnc3cccnc32)ccc1C(=O)N(c1nccc2cccc(C)c12)[C@@H]1CCCNC1 [Example 307, (R)-4-(3H-[1,2,3]triazolo[4,5-b]pyridin-3-yl)-2-ethyl-N-(8-methylisoquinolin-1-yl)-N-(piperidin-3-yl)benzamide]	–
6.89	COCCc1nnc(-c2ccc(C(=O)N(c3nccc4scc(C)c34)[C@@H]3CCCNC3)cn2)s1 [Example 913, 6-[5-(2-methoxyethyl)-1,3,4-thiadiazol-2-yl]-N-(3-methylthieno[3,2-c]pyridin-4-yl)-N-[(3R)-3-piperidyl]pyridine-3-carboxamide]	–
7.18	Cc1ccnc(Nc2ccc(C(=O)N(c3nccc4cccc(C)c34)[C@@H]3CCCNC3)c(F)c2)n1 [Example 319, (R)-2-fluoro-N-(8-methylisoquinolin-1-yl)-4-((4-methylpyrimidin-2-yl)amino)-N-(piperidin-3-yl)benzamide]	–
7.29	[2H]C([2H])([2H])n1cc(-c2ccc(C(=O)N(c3nccc4cc(Cl)cc(C)c34)[C@@H]3CCCNC3)cc2)nn1 [Example 892, N-(6-chloro-8-methyl-1-isoquinolyl)-N-[(3R)-3-piperidyl]-4-[1-(trideuteriomethyl)triazol-4-yl] benzamide]	–
7.33	COCCn1cc(-c2ccc(C(=O)N(c3nccc4scc(C)c34)[C@@H]3CCCNC3)cn2)nn1 [Example 638, (R)-6-(1-(2-methoxyethyl)-1H-1,2,3-triazol-4-yl)-N-(3-methylthieno[3,2-c]pyridin-4-yl)-N-(piperidin-3-yl)nicotinamide]	–
